Assay: Solubility of polyphenols in water
Format: physicochemical
Excerpt: Methods of the disclosure can be used to design functional nanopatterns with tunable properties (e.g., mechanical properties that can be varied based on the strength of coordination between the metal ion and polyphenol). For example, the stability and mechanical properties of nanopatterns can be varied based on the strength of coordination between the metal ion and the polyphenol. […] The polymeric, multitopic structure of large polyphenols like TA can provide greater binding affinity to various substrates. These polyphenols also have other different characteristics, such as water solubility. […] This can broaden the range of ink concentrations that are suitable for tip-directed patterning.
Other inks based on different polyphenols (GA, ECG, and EGCG) were prepared according to similar protocols. […] However, ECG had limited solubility of <1 mg/mL in water. Therefore, 0.5 mg/mL was used for ECG-based inks. Unless otherwise noted, the concentration of polyphenol was 5 mg mL^−1 and the molar ratio of polyphenol to metal ion was 1:1. For GA-based inks, the molar ratio of GA to metal ion was 10:1. For the EGCG-Ni ink, the molar ratio of EGCG to Ni was 5:1. These molar ratios were determined after considering the solubility of each metal salt and the molecular weight of each polyphenol.

Row | Compound | solubility (in water) [µg/mL] | water solubility relative to GA, ECG, and EGCG (comparison in words)
1 | O=C(O[C@@H]1Cc2c(O)cc(O)cc2O[C@@H]1c1ccc(O)c(O)c1)c1cc(O)c(O)c(O)c1 [ECG, epicatechin gallate] | < 1000 | 
2 | O=C(OC[C@H]1O[C@@H](OC(=O)c2cc(O)c(O)c(OC(=O)c3cc(O)c(O)c(O)c3)c2)[C@H](OC(=O)c2cc(O)c(O)c(OC(=O)c3cc(O)c(O)c(O)c3)c2)[C@@H](OC(=O)c2cc(O)c(O)c(OC(=O)c3cc(O)c(O)c(O)c3)c2)[C@@H]1OC(=O)c1cc(O)c(O)c(OC(=O)c2cc(O)c(O)c(O)c2)c1)c1cc(O)c(O)c(OC(=O)c2cc(O)c(O)c(O)c2)c1 [TA, Tannic acid] |  | substantially higher solubility

From patent US20260250524A1, “METAL-PHENOLIC NANOPATTERNS AND METHODS OF MAKING AND USING THE SAME” (NORTHWESTERN UNIVERSITY, priority 2023, published 2026)
